In paper PMC7217250, “Efficiency of vanillin in impeding metabolic adaptability and virulence of Candida albicans by inhibiting glyoxylate cycle, morphogenesis, and biofilm formation” (Current Medical Mycology, 2020):

Biological target: T1, Mls1p (malate synthase, MLS) (Candida albicans, UniProt Q5APD2)
T1 construct: gene MLS1; native enzyme in crude extract of C. albicans cells; not purified
Assay: spectrophotometric 5-thio-2-nitrobenzoic acid formation at […] nm, crude extract
Format: cell-based

T1 sequence (Q5APD2 entry or part of it): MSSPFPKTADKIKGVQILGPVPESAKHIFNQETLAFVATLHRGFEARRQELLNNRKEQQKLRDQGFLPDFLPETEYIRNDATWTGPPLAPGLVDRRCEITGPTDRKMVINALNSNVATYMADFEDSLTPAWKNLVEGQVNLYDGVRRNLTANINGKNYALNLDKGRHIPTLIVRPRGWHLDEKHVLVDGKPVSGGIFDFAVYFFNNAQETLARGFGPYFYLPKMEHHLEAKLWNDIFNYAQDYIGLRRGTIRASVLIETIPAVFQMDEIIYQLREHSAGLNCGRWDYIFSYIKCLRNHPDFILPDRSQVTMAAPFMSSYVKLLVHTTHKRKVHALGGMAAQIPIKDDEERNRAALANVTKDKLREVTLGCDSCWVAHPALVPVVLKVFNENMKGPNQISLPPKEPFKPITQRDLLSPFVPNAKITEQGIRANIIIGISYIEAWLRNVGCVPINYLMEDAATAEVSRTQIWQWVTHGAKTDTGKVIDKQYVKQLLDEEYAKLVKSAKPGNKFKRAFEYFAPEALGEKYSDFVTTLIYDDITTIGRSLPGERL

CC(=O)SCCNC(=O)CCNC(=O)[C@H](O)C(C)(C)COP(=O)(O)OP(=O)(O)OC[C@H]1O[C@@H](n2cnc3c(N)ncnc32)[C@H](O)[C@@H]1OP(=O)(O)O [acetyl CoA]
spectrophotometric 5-thio-2-nitrobenzoic acid formation at 412 nm, crude extract: acetyl CoA (Sigma Chemical Co., USA) were used as the substrates for the ICL and MLS
